# According to ChEMBL document CHEMBL3867482, “Design and synthesis of water soluble β-aminosulfone analogues of SCH 900229 as γ-secretase inhibitors” (Bioorg Med Chem Lett, 2016):
# Tests used:
# [1] = Selectivity ratio of IC50 for human gamma secretase PS2 (1 to 467 residues) expressed in baculovirus infected sf9 cells co-expressing aph-1a to IC50 for gamma secretase PS1 (1 to 448 residues) expressed in baculovirus infected sf9 cells co-expressing aph-1a
# Cytochrome P450 2C9 = Cytochrome P450 2C9 (Homo sapiens, UniProt P11712); test: Inhibition of CYP2C9 in human liver microsomes after 30 secs by LC/MS/MS analysis; assay type: ADME
# [2] = AUC (0 to 6 hrs) in mouse at 10 mg/kg, po by LC/MS/MS analysis; assay type: ADME, organism-based; parameters: time < 6 hr, dose 10 mg/kg, route oral; conditions: in vivo
# [3] = Clearance in rat hepatocytes assessed per million cells by HPLC/atmospheric pressure chemical ionization/MS analysis; assay type: ADME, cell-based, Hepatocyte; conditions: read-out: CLH
# [4] = Clearance in monkey hepatocytes assessed per million cells by HPLC/atmospheric pressure chemical ionization/MS analysis; assay type: ADME, cell-based, Macaca mulatta, Hepatocyte; conditions: rhesus monkey, read-out: CLH
# [5] = Inhibition of gamma-secretase in HEK293 cell membranes expressing human APP Swedish/London double mutant assessed as reduction in amyloid beta 40 formation after 1 hr by electrochemiluminescence based immunoassay
# Cytochrome P450 3A4 [6] = target: T1, Cytochrome P450 3A4 (Homo sapiens, UniProt P08684); test: Inhibition of CYP3A4 in human liver microsomes preincubated for 30 mins after 30 secs by LC/MS/MS analysis; assay type: ADME
# Mus musculus [7] = test: Antialzheimer activity in B6C3F1 mouse assessed as amyloid beta 40 level in plasma at 10 mg/kg, po administered as single dose after 3 hrs relative to control; assay type: functional
# [8] = Clearance in dog hepatocytes assessed per million cells by HPLC/atmospheric pressure chemical ionization/MS analysis; assay type: ADME, cell-based, Canis lupus familiaris, Hepatocyte; conditions: read-out: CLH
# [9] = Kinetic solubility of compound; assay type: physicochemical; conditions: read-out: Kinetic_solubility
# Cytochrome P450 2D6 = Cytochrome P450 2D6 (Homo sapiens, UniProt P10635); test: Inhibition of CYP2D6 in human liver microsomes after 30 secs by LC/MS/MS analysis; assay type: ADME
# [10] = Clearance in human hepatocytes assessed per million cells by HPLC/atmospheric pressure chemical ionization/MS analysis; assay type: ADME, cell-based, Hepatocyte; conditions: read-out: CLH
# Cytochrome P450 3A4 [11] = target: T1, Cytochrome P450 3A4; test: Inhibition of CYP3A4 in human liver microsomes after 30 secs by LC/MS/MS analysis; assay type: ADME
# Mus musculus [12] = test: Antialzheimer activity in B6C3F1 mouse assessed as amyloid beta 40 level in cortex at 10 mg/kg, po administered as single dose after 3 hrs relative to control; assay type: functional
# [13] = Ratio of drug level in brain to plasma in mouse at 6 hrs; assay type: ADME, organism-based; conditions: brain and plasma, read-out: BPR
# Sequence of Cytochrome P450 2C9 (P11712 whole entry): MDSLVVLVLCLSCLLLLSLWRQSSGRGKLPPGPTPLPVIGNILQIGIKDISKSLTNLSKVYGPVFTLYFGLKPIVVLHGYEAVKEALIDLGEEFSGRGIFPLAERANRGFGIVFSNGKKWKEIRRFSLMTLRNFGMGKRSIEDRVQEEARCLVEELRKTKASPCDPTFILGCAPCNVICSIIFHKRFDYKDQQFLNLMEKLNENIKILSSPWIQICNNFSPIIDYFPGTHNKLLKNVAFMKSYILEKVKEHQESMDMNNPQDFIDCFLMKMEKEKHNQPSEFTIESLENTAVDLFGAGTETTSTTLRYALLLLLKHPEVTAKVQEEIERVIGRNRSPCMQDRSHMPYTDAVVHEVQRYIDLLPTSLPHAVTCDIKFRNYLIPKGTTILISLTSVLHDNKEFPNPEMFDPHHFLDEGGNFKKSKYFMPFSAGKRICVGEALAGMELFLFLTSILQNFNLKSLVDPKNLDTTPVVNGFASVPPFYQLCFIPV
# T1 sequence (P08684 whole entry): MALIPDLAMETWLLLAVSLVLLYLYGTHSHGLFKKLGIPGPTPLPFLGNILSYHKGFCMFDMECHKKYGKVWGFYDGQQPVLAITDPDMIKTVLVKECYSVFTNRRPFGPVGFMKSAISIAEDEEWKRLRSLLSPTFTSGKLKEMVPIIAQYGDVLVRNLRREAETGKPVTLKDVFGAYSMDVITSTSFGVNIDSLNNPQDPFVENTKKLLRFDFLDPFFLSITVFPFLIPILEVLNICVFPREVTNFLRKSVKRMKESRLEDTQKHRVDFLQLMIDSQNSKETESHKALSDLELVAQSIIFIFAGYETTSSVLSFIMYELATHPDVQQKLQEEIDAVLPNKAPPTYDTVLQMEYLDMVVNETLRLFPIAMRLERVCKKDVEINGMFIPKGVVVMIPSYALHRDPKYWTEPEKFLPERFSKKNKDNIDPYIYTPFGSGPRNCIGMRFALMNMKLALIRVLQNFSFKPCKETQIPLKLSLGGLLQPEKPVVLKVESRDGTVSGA
# Sequence of Cytochrome P450 2D6 (P10635 whole entry): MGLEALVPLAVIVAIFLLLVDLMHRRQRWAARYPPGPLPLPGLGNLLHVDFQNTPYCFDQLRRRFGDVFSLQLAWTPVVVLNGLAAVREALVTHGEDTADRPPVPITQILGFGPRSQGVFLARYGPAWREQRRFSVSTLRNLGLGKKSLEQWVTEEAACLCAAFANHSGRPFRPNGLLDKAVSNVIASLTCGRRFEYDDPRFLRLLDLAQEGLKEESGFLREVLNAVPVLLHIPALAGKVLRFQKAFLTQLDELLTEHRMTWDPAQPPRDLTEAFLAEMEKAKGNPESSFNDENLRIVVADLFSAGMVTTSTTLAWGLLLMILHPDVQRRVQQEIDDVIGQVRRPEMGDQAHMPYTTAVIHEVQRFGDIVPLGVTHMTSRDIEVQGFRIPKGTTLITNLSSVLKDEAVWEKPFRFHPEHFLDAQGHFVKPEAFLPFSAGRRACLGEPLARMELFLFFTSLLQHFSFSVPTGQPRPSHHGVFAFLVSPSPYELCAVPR
smiles,measurement,setting,value
O=S(=O)(CC[C@@H]1OCC[C@@]2(S(=O)(=O)c3ccc(Cl)cc3)c3c(F)ccc(F)c3OC[C@@H]12)CCN1CCNCC1,Ratio IC50,[1],10
same,IC50,Cytochrome P450 2C9,> 20000 nM
same,AUC,"[2]; 6 h, BLD = below limit of detection",Bld
same,hepatocyte CLint,[3],6.1 µL/min/1e6 cells
same,hepatocyte CLint,[4],12.7 µL/min/1e6 cells
same,IC50,[5],0.8 nM
same,IC50,Cytochrome P450 3A4 [6],> 20000 nM
same,Activity,Mus musculus [7],-95%
same,hepatocyte CLint,[8],7.7 µL/min/1e6 cells
same,solubility kinetic,[9],200 µM
same,IC50,Cytochrome P450 2D6,> 20000 nM
same,hepatocyte CLint,[10],5.3 µL/min/1e6 cells
same,IC50,Cytochrome P450 3A4 [11],> 20000 nM
CNCCS(=O)(=O)CC[C@@H]1OCC[C@@]2(S(=O)(=O)c3ccc(Cl)cc3)c3c(F)ccc(F)c3OC[C@@H]12,Ratio IC50,[1],25
CS(=O)(=O)CC[C@@H]1OCC[C@@]2(S(=O)(=O)c3ccc(Cl)cc3)c3c(F)ccc(F)c3OC[C@@H]12,Activity,Mus musculus [12],-78%
same,Ratio IC50,[1],25
same,IC50,[5],1.3 nM
same,Activity,Mus musculus [7],-89%
O=S(=O)(CC[C@@H]1OCC[C@@]2(S(=O)(=O)c3ccc(Cl)cc3)c3c(F)ccc(F)c3OC[C@@H]12)CCN1CCCCC1,Ratio IC50,[1],9
same,IC50,[5],1.3 nM
O=S(=O)(CC[C@@H]1OCC[C@@]2(S(=O)(=O)c3ccc(Cl)cc3)c3c(F)ccc(F)c3OC[C@@H]12)C[C@H]1CCCN1,Activity,Mus musculus [12],-42%
same,Kp at 6 h,[13],0.4
same,IC50,Cytochrome P450 2C9,> 20000 nM
same,AUC(0-t) at 6 h,[2],2.52 µM·h
same,hepatocyte CLint,[3],12.8 µL/min/1e6 cells
same,hepatocyte CLint,[4],28 µL/min/1e6 cells
same,IC50,[5],1 nM
same,IC50,Cytochrome P450 3A4 [6],1000 nM
same,Activity,Mus musculus [7],-71%
same,hepatocyte CLint,[8],13.6 µL/min/1e6 cells
same,IC50,Cytochrome P450 2D6,> 20000 nM
same,IC50,Cytochrome P450 3A4 [11],> 20000 nM
NCCS(=O)(=O)CC[C@@H]1OCC[C@@]2(S(=O)(=O)c3ccc(Cl)cc3)c3c(F)ccc(F)c3OC[C@@H]12 [listing 1 of 2 here],Ratio IC50,[1],35
CNCCS(=O)(=O)CC[C@@H]1OCC[C@@]2(S(=O)(=O)c3ccc(Cl)cc3)c3c(F)ccc(F)c3OC[C@@H]12.Cl,solubility kinetic,[9],≥ 200 µM
Cl.O=S(=O)(CC[C@@H]1OCC[C@@]2(S(=O)(=O)c3ccc(Cl)cc3)c3c(F)ccc(F)c3OC[C@@H]12)C[C@H]1CCCN1,solubility kinetic,[9],≥ 200 µM
O=S(=O)(CC[C@@H]1OCC[C@@]2(S(=O)(=O)c3ccc(Cl)cc3)c3c(F)ccc(F)c3OC[C@@H]12)[C@H]1CCNC1 [listing 1 of 2 here],Activity,Mus musculus [12],-56%
same,Kp at 6 h,[13],0.3
same,IC50,Cytochrome P450 2C9,> 20000 nM
same,AUC(0-t) at 6 h,[2],1.02 µM·h
same,hepatocyte CLint,[3],18.9 µL/min/1e6 cells
same,hepatocyte CLint,[4],60.5 µL/min/1e6 cells
same,IC50,[5],1.4 nM
same,IC50,Cytochrome P450 3A4 [6],1000 nM
same,Activity,Mus musculus [7],-82%
same,hepatocyte CLint,[8],21.1 µL/min/1e6 cells
same,IC50,Cytochrome P450 2D6,> 20000 nM
same,hepatocyte CLint,[10],34.2 µL/min/1e6 cells
same,IC50,Cytochrome P450 3A4 [11],2000 nM
O=S(=O)(CC[C@@H]1OCC[C@@]2(S(=O)(=O)c3ccc(Cl)cc3)c3c(F)ccc(F)c3OC[C@@H]12)CCN1CCC1,Ratio IC50,[1],17
same,IC50,[5],1.6 nM
Cl.O=S(=O)(CC[C@@H]1OCC[C@@]2(S(=O)(=O)c3ccc(Cl)cc3)c3c(F)ccc(F)c3OC[C@@H]12)C1CNC1,solubility kinetic,[9],> 200 µM
CCNCCS(=O)(=O)CC[C@@H]1OCC[C@@]2(S(=O)(=O)c3ccc(Cl)cc3)c3c(F)ccc(F)c3OC[C@@H]12 [listing 1 of 2 here],Ratio IC50,[1],18
O=S(=O)(CCO)CC[C@@H]1OCC[C@@]2(S(=O)(=O)c3ccc(Cl)cc3)c3c(F)ccc(F)c3OC[C@@H]12,Activity,Mus musculus [12],-46%
same,IC50,[5],1 nM
same,Activity,Mus musculus [7],-42%
same,solubility kinetic,[9],> 200 µM
O=S(=O)(CC[C@@H]1OCC[C@@]2(S(=O)(=O)c3ccc(Cl)cc3)c3c(F)ccc(F)c3OC[C@@H]12)[C@H]1CCNC1 [listing 2 of 2 here],Ratio IC50,[1],30
CCNCCS(=O)(=O)CC[C@@H]1OCC[C@@]2(S(=O)(=O)c3ccc(Cl)cc3)c3c(F)ccc(F)c3OC[C@@H]12 [listing 2 of 2 here],Kp at 6 h,[13],0.4
same,IC50,Cytochrome P450 2C9,> 20000 nM
same,AUC(0-t) at 6 h,[2],1.35 µM·h
same,hepatocyte CLint,[3],29.1 µL/min/1e6 cells
same,hepatocyte CLint,[4],44.6 µL/min/1e6 cells
same,IC50,[5],0.9 nM
same,IC50,Cytochrome P450 3A4 [6],1400 nM
same,hepatocyte CLint,[8],10.8 µL/min/1e6 cells
same,IC50,Cytochrome P450 2D6,> 20000 nM
same,hepatocyte CLint,[10],15.1 µL/min/1e6 cells
same,IC50,Cytochrome P450 3A4 [11],> 20000 nM
Cl.NCCS(=O)(=O)CC[C@@H]1OCC[C@@]2(S(=O)(=O)c3ccc(Cl)cc3)c3c(F)ccc(F)c3OC[C@@H]12,solubility kinetic,[9],≥ 200 µM
NCCS(=O)(=O)CC[C@@H]1OCC[C@@]2(S(=O)(=O)c3ccc(Cl)cc3)c3c(F)ccc(F)c3OC[C@@H]12 [listing 2 of 2 here],Activity,Mus musculus [12],-52%
same,IC50,Cytochrome P450 2C9,> 20000 nM
same,AUC(0-t) at 6 h,[2],0.582 µM·h
same,hepatocyte CLint,[3],12.1 µL/min/1e6 cells
same,hepatocyte CLint,[4],20.3 µL/min/1e6 cells
same,IC50,[5],0.8 nM
same,IC50,Cytochrome P450 3A4 [6],2800 nM
same,Activity,Mus musculus [7],-54%
same,hepatocyte CLint,[8],6.4 µL/min/1e6 cells
same,IC50,Cytochrome P450 2D6,> 20000 nM
same,hepatocyte CLint,[10],8.5 µL/min/1e6 cells
same,IC50,Cytochrome P450 3A4 [11],15100 nM
Cl.O=S(=O)(CC[C@@H]1OCC[C@@]2(S(=O)(=O)c3ccc(Cl)cc3)c3c(F)ccc(F)c3OC[C@@H]12)C[C@@H]1CCCN1,solubility kinetic,[9],≥ 200 µM
